From ChEMBL document CHEMBL1135798, “Structure-activity relationships of the antimalarial agent artemisinin. 6. The development of predictive in vitro potency models using CoMFA and HQSAR methodologies” (2002)

Each compound was assayed on Plasmodium falciparum (assay: Antimalarial activity against chloroquine-resistant, mefloquine-sensitive Plasmodium falciparum W2).
Format: functional

First: CCOP(=O)(OCC)OCC[C@@H]1CCC[C@@H]2CC[C@@]3(C)OO[C@]21[C@@H](OC)O3
Second: COCC[C@@H]1CCC[C@@H]2CC[C@@]3(C)OO[C@]21[C@@H](OC)O3
The “Log RA” value of the first is higher: 0.37 for the first, -0.39 for the second.

Going from `CCOC(=O)[C@H](O[C@H]1O[C@@H]2O[C@@]3(C)CC[C@H]4[C@H](C)CC[C@@H]([C@H]1C)[C@@]24OO3)c1ccccc1` to `CCOC(=O)C[C@@H](O[C@H]1O[C@@H]2O[C@@]3(C)CC[C@H]4[C@H](C)CC[C@@H]([C@H]1C)[C@@]24OO3)c1ccccc1`, the “Log RA” value rises from 0.87 to 1.07.

Going from `C[C@@H]1CC[C@H]2[C@](C)(O)[C@H](O)O[C@@H]3O[C@@]4(C)CC[C@@H]1[C@]32OO4` to `C[C@@H]1CC[C@@H]2[C@]34OO[C@](C)(CC[C@@H]13)O[C@H]4OC(O)[C@@]21CO1` (stereo not given in full), the “Log RA” value rises from -0.89 to -0.62.

`CCN(CC)C(=O)c1ccc(C(=O)OCC[C@@H]2CCC[C@@H]3CC[C@@]4(C)OO[C@]32[C@@H](OC)O4)cc1` and `CO[C@H]1OC2(C)CC[C@H]3CCC[C@@H](CCOCc4ccc(F)cc4)C31OO2` (stereo not given in full) are within 0.2 log units of each other in “Log RA” value: 0.23 for the first, 0.38 for the second.

Compared with `CCOC(=O)CC[C@@]12CC[C@H]3[C@H](C)CC[C@H]4CCO[C@H](O1)[C@]43O2`, `CCC[C@@]12CC[C@H]3[C@H](C)CC[C@H]4CCO[C@H](O1)[C@]43OO2` is higher in “Log RA” value: -4 for the first, 0.84 for the second.

Compared with `C/C=C/C[C@@H]1C(=O)O[C@@H]2O[C@@]3(C)CC[C@H]4[C@H](C)CC[C@@H]1[C@@]24OO3`, `C/C=C\C[C@@H]1C(=O)O[C@@H]2O[C@@]3(C)CC[C@H]4[C@H](C)CC[C@@H]1[C@@]24OO3` is lower in “Log RA” value: -0.6 for the first, -1.1 for the second.

`CCO[C@H]1O[C@@H]2O[C@@]3(C)CC[C@H]4C(C(F)F)CC[C@@H]([C@H]1C)[C@@]24OO3` (stereo not given in full) and `CCOC1O[C@@H]2O[C@@]3(C)CC[C@H]4[C@H](C)CC[C@@H]([C@H]1CC)[C@@]24OO3` (stereo not given in full) are within 0.2 log units of each other in “Log RA” value: 0.41 for the first, 0.5 for the second.

`C[C@H]1[C@@H](O[C@@H](C)c2ccc(C(F)(F)F)cc2)O[C@@H]2O[C@@]3(C)CC[C@H]4[C@H](C)CC[C@@H]1[C@@]24OO3` and `C[C@H]1[C@@H](O[C@@H](CC(=O)O)c2ccc([N+](=O)[O-])cc2)O[C@@H]2O[C@@]3(C)CC[C@H]4[C@H](C)CC[C@@H]1[C@@]24OO3` are within 0.2 log units of each other in “Log RA” value: 0.15 for the first, 0.1 for the second.

`CC(C)CN1C(=O)[C@H](C)[C@@H]2CC[C@@H](C)[C@@H]3CC[C@]4(C)O[C@@H]1[C@@]32O4` and `C[C@@H]1CC[C@H]2[C@@H](C)C(=O)O[C@@H]3O[C@@]4(C)CC[C@@H]1[C@]32O4` [DEOXYARTEMISININ] are the same in “Log RA” value: -4 for the first, -4 for the second.

Compared with `C[C@@H]1CC[C@H]2CC(=O)O[C@@H]3O[C@@]4(CCCc5ccc(Cl)cc5)CC[C@@H]1[C@@]23OO4`, `CCCC[C@H]1C(=O)O[C@@H]2O[C@@]3(CCCc4ccc(Cl)cc4)CC[C@H]4[C@H](C)CC[C@@H]1[C@@]24OO3` is lower in “Log RA” value: 0.1 for the first, -0.28 for the second.

Going from `C=CC[C@H]1C(=O)O[C@@H]2O[C@@]3(C)CC[C@H]4[C@H](C)CC[C@@H]1[C@@]24OO3` to `C=C/N=N/[C@H]1C(=O)O[C@@H]2O[C@]3(C)CC[C@H]4[C@H](C)CC[C@@H]1[C@@]24OO3`, the “Log RA” value falls from -0.1 to -2.7.

First: CCO[C@H]1O[C@@H]2O[C@@]3(C)CC(O)[C@H]4C(C)CC[C@@H]([C@H]1C)[C@@]24OO3 (stereo not given in full)
Second: COC(=O)CCOC1O[C@@H]2O[C@@]3(C)CC[C@H]4[C@H](C)CC[C@@H]([C@H]1C)[C@@]24OO3 (stereo not given in full)
The “Log RA” value of the first is lower: -1.08 for the first, 0.1 for the second.

First: CC1(C)OO[C@]23CCCCC2CC(=O)OC3O1 (stereo not given in full)
Second: CCCC[C@H]1C(=O)OC2OC(C)(C)OO[C@@]23CCCCC13 (stereo not given in full)
The “Log RA” value of the first is lower: -2.237 for the first, -1.13 for the second.

Going from `C[C@@]12C[C@H]3CCC[C@H]4CC(=O)O[C@H](O1)[C@@]34OO2` to `CC[C@@]12CC[C@H]3[C@H](C)CC[C@H]4CC(=O)O[C@H](O1)[C@]43OO2`, the “Log RA” value rises from -1.79 to 0.05.

Compared with `COC(=O)C[C@@H](C)OC1O[C@@H]2O[C@@]3(C)CC[C@H]4[C@H](C)CC[C@@H]([C@H]1C)[C@@]24OO3` (stereo not given in full), `C[C@H]1[C@@H](O)O[C@@H]2O[C@@]3(C)CC[C@H]4[C@H](C)CC[C@@H]1[C@@]24OO3` [ARTENIMOL] is lower in “Log RA” value: 1.7 for the first, 0.55 for the second.

`C[C@@H]1CC[C@H]2[C@@H](CCCCc3ccccc3)C(=O)O[C@@H]3O[C@@]4(C)CC[C@@H]1[C@]32OO4` and `C[C@@H]1CC[C@H]2[C@@H](CCCc3ccccc3)C(=O)O[C@@H]3O[C@@]4(C)CC[C@@H]1[C@]32OO4` are within 0.2 log units of each other in “Log RA” value: 0.63 for the first, 0.78 for the second.

Going from `CC[C@@]12CC[C@H]3[C@H](C)CC[C@H]4CCO[C@H](O1)[C@]43OO2` to `CCCC[C@@]12CC[C@H]3[C@H](C)CC[C@H]4CCO[C@H](O1)[C@]43OO2`, the “Log RA” value rises from -1 to 0.75.

`CCCC(=O)OCC(CC)(CC)OOC(C)(C)C` and `CCC(=O)OCC(CC)(CC)OOC(C)(C)C` are the same in “Log RA” value: -4 for the first, -4 for the second.

First: CO[C@H]1O[C@]2(C)OO[C@]13[C@H](CCOCc1ccccc1)CCC[C@@H]3CC2(C)C
Second: CO[C@H]1O[C@@]2(C)CC[C@H]3CCC[C@@H](CCOCc4ccc(-c5ccccc5)cc4)[C@]31OO2
The “Log RA” value of the first is lower: -1.8 for the first, 0.32 for the second.

Compared with `C[C@@H]1CC[C@@H]2[C@]34OO[C@](C)(CC[C@@H]13)O[C@H]4OC(=O)[C@@]2(O)CO`, `C[C@@H]1CC[C@H]2[C@H](C)C(=O)O[C@@H]3O[C@@]4(C)CC[C@@H]1[C@]32OO4` is higher in “Log RA” value: -4 for the first, -0.17 for the second.

Compared with `C[C@@H]1CC[C@H]2CCO[C@@H]3O[C@@]4(CCc5ccccc5)CC[C@@H]1[C@@]23OO4`, `C[C@@H]1CC[C@H]2CC(=O)O[C@@H]3O[C@@]4(CCc5ccccc5)CC[C@@H]1[C@@]23OO4` is lower in “Log RA” value: -1.7 for the first, -2 for the second.

Compared with `CO[C@H]1O[C@@]2(C)CC[C@H]3CCCC[C@]31OO2`, `C[C@@H]1CC[C@H]2CCO[C@@H]3O[C@@]4(C)CC[C@@H]1[C@@]23OO4` is higher in “Log RA” value: -0.31 for the first, 0.28 for the second.

Going from `CO[C@H]1O[C@]2(C)OO[C@]13[C@H](CCO)CCC[C@@H]3C[C@H]2C` to `COC(=O)c1ccccc1S(=O)(=O)OCC[C@@H]1CCC[C@@H]2CC[C@@]3(C)OO[C@]21[C@@H](OC)O3`, the “Log RA” value rises from -1.8 to -0.87.

Going from `CCC1(CC)OO[C@]23CCCCC2[C@@H](C)C(=O)OC3O1` (stereo not given in full) to `C[C@@H]1CC[C@H]2[C@@H](C)C(=O)O[C@@H]3O[C@@]4(C)CC[C@@H]1[C@]32OO4` [ARTEMISININ], the “Log RA” value rises from -0.6 to 0.

First: CC1(C)C[C@]2(c3ccccc3)CC[C@@](c3ccccc3)(C1)OO2
Second: CO[C@@H]1O[C@@]2(C)CC[C@H]3CCC[C@@H](CCOC(=O)N(c4ccccc4)c4ccccc4)[C@]31OO2
The “Log RA” value of the first is lower: -2.17 for the first, 1.06 for the second.

`CC(C)CC[C@H]1C(=O)O[C@@H]2O[C@@]3(C)CC[C@H]4[C@H](C)CC[C@@H]1[C@@]24OO3` and `CC(C)CCC[C@H]1C(=O)O[C@@H]2O[C@@]3(C)CC[C@H]4[C@H](C)CC[C@@H]1[C@@]24OO3` are within 0.2 log units of each other in “Log RA” value: 0.07 for the first, -0.04 for the second.

Compared with `CC(C)[C@H]1C(=O)O[C@@H]2O[C@@]3(C)CC[C@H]4[C@H](C)CC[C@]1(C)[C@@]24OO3`, `C[C@@H]1CC[C@H]2C(=O)C(=O)O[C@@H]3O[C@@]4(C)CC[C@@H]1[C@]32OO4` is lower in “Log RA” value: -0.04 for the first, -2.47 for the second.

Compared with `CC(C)C[C@@]12CC[C@H]3[C@H](C)CC[C@H]4CC(=O)O[C@H](O1)[C@]43O2`, `CCCC[C@@]12CC[C@H]3[C@H](C)CC[C@H]4CC(=O)O[C@H](O1)[C@]43OO2` is higher in “Log RA” value: -4 for the first, -0.74 for the second.

Compared with `C[C@@H]1CC[C@H]2CC(=O)N(Cc3ccccc3)[C@@H]3O[C@@]4(C)CC[C@@H]1[C@@]23OO4`, `C[C@@H]1CC[C@H]2[C@@H](CCc3ccccc3)C(=O)O[C@@H]3O[C@@]4(C)CC[C@@H]1[C@]32OO4` is lower in “Log RA” value: 0.34 for the first, 0.12 for the second.

Compared with `C[C@@H]1CC[C@H]2[C@H]3CCCO[C@H]3O[C@@H]3O[C@@]4(C)CC[C@@H]1[C@]32OO4`, `CC1CO[C@@H]2O[C@@]3(C)CC[C@H]4[C@H](C)CC[C@@H]1[C@@]24OO3` (stereo not given in full) is lower in “Log RA” value: 0.23 for the first, -0.79 for the second.

`C[C@@H]1CC[C@H]2[C@@H](C)C(=O)N[C@@H]3O[C@@]4(C)CC[C@@H]1[C@]32O4` and `C[C@@H]1CC[C@H]2[C@@H](C)CO[C@@H]3O[C@@]4(C)CC[C@@H]1[C@]32O4` are the same in “Log RA” value: -4 for the first, -4 for the second.

First: CC(C)C[C@@]12CC[C@H]3[C@H](C)CC[C@H]4CCO[C@H](O1)[C@]43OO2
Second: CCOC1O[C@@H]2O[C@@]3(C)CC[C@H]4[C@H](C)CC[C@H]([C@@]24OO3)[C@]1(C)O (stereo not given in full)
The “Log RA” value of the first is higher: 0.4 for the first, -0.44 for the second.

First: C[C@@H]1CC[C@H]2[C@@H](CCCc3ccc(Cl)cc3)C(=O)O[C@@H]3O[C@@]4(C)CC[C@@H]1[C@]32OO4
Second: CCCCC1O[C@@H]2O[C@@]3(C)CC[C@H]4[C@H](C)CC[C@@H]([C@H]1C)[C@@]24OO3 (stereo not given in full)
The “Log RA” value of the first is higher: 1.37 for the first, 0.06 for the second.

Compared with `C[C@@H]1CC[C@@H]2[C@]34OO[C@](C)(CC[C@@H]13)O[C@H]4OC(Nc1cccc(F)c1)[C@@]2(C)Br` (stereo not given in full), `C[C@@H]1CC[C@@H]2[C@]34OO[C@](C)(CC[C@@H]13)O[C@H]4OC(OCC(F)(F)F)[C@@]2(C)O` (stereo not given in full) is lower in “Log RA” value: 0.79 for the first, 0.29 for the second.

First: CCO[C@H]1O[C@@H]2O[C@@]3(C)CC[C@H]4C(C)C(F)(F)C[C@@H]([C@H]1C)[C@@]24OO3 (stereo not given in full)
Second: C[C@@H]1CC[C@H]2[C@@H](C)C(=O)N(Cc3ccccn3)[C@@H]3O[C@@]4(C)CC[C@@H]1[C@@]23OO4
The “Log RA” value of the first is lower: 0.19 for the first, 1.46 for the second.
